Key:
[1] = tested on: HCT-116 MTAP(-/-) deficient cells; assay: Inhibition of proliferation of HCT-116 MTAP(-/-) deficient cells (Cell-Titer Glo); format: cell-based; details: 8 days
Protocol: Test 1: Compound's inhibitory activity on proliferation of HCT-116 MTAP(-/-) deficient cells.
Materials and Cells: HCT-116 MTAP(-/-) deficient cells obtained from Kyinno Bio (China); RPMI-1640 medium, fetal bovine serum, and penicillin-streptomycin purchased from Thermo Fisher Scientific (America); 384-well plates from PerkinElmer (America); Cell-Titer Glo assay kit from Promega (America).
Cell Culture: HCT116 MTAP(-/-) deficient cells were cultured in RPMI 1640 medium containing 10% fetal bovine serum and 1% penicillin-streptomycin at 37°C, 5% CO2. Only cells in logarithmic growth phase were used for experiments.
(§1) Cell Proliferation Inhibition Assay: The compound's inhibitory activity on HCT-116 MTAP(-/-) deficient cells was assessed using the Cell-Titer Glo assay kit. Adjusting cell concentration, 40 µL was seeded into a 384-well plate and cultured overnight at 37°C, 5% CO2. Each well received 40 nL of the compound, achieving concentrations from 0 to 10,000 nM (starting concentration 10,000 nM, 3-fold dilution, 10 points), with 0.1% DMSO. The cell plate was incubated for 8 days at 37°C, 5% CO2. Cell-Titer Glo reagent (40 µL) was added to measure cell viability.

[2] = tested on: HCT-116 MTAP wild-type cells; assay: Inhibition of proliferation of HCT-116 MTAP wild-type cells (Cell-Titer Glo); format: cell-based; details: 8 days
Protocol: Test 2: Compound's inhibitory activity on proliferation of HCT-116 MTAP wild-type cells.
Materials and Cells: HCT-116 MTAP wild-type cells obtained from Kyinno Bio (China); RPMI-1640 medium, fetal bovine serum, and penicillin-streptomycin purchased from Thermo Fisher Scientific (America); 384-well plates from PerkinElmer (America); Cell-Titer Glo assay kit from Promega (America).
Cell Culture: HCT116 MTAP wild-type cells were cultured in RPMI 1640 medium containing 10% fetal bovine serum and 1% penicillin-streptomycin at 37°C, 5% CO2. Only cells in logarithmic growth phase were used for experiments.
as §1, with “MTAP wild-type” for “MTAP(-/-) deficient”

| Compound | IC50 ([1]; Homo sapiens, HCT-116, 192 h) [nM] | IC50 ([2]; Homo sapiens, HCT-116, 192 h) [nM] | IC50 [1] [nM] | IC50 [2] [nM] |
| --- | --- | --- | --- | --- |
| Cc1ncn2c1c(N)nc1ccc(C(=O)N(C)[C@@H]3COc4ccc(F)cc43)cc12 [Example 64, (S)-4-amino-N-(5-fluoro-2,3-dihydrobenzofuran-3-yl)-N,3-dimet hylimidazo[1,5-a]quin oxaline-8-carboxamide] | 278 | > 20000 |  |  |
| CN(C(=O)c1ccc2nc(N)c3cncn3c2c1)[C@@H]1COc2cc(F)ccc21 [Example 68, (S)-4-amino-N-(6-fluoro-2,3-dihydrobenzofuran-3-yl)-N-methyli midazo[1,5-a]quinoxa line-8-carboxamide] | 382 | 8570 |  |  |
| Cc1ncn2c1c(N)nc1ccc(C(=O)N(C3CC3)C3COc4cc(C(F)(F)F)ccc43)cc12 (centres unmarked) [Example 69, 4-amino-N-cyclopropyl-3-methyl-N-(6-(trifluoromethyl)-2,3-dihydrobenzofuran-3-yl)i midazo[1,5-a]quinoxa line-8-carboxamide] | 87.1 | 5020 |  |  |
| Cc1ncc(-c2ccc3c(c2)OCC3N(C(=O)c2ccc3nc(N)c4cncn4c3c2)C2CC2)cn1 (centres unmarked) [Example 72, 4-amino-N-cyclopropyl-N-(6-(2-methylpyrimidin-5-yl)-2,3-dihydrobenzofuran-3-yl)imi dazo[1,5-a]quinoxaline-8-carboxamide] | 117 | > 20000 |  |  |
| Nc1nc2ccc(C(=O)N(C3CC3)C3COc4cc(C(F)(F)F)ccc43)cc2n2cncc12 (centres unmarked) [Example 73, 4-amino-N-cyclopropyl-N-(6-(trifluoromethyl)-2,3-dihydrobenzof uran-3-yl)imidazo[1,5-a]quinoxaline-8-carb oxamide] | 55.5 | 4620 |  |  |
| Nc1nc2ccc(C(=O)N(C3CC3)C3COc4cc(Br)ccc43)cc2n2cncc12 (centres unmarked) [Example 74, 4-amino-N-(6-bromo-2,3-dihydrobenzofuran-3-yl)-N-cyclopropyl imidazo[1,5-a]quinox aline-8-carboxamide] |  |  | 148 | 5990 |
| CC1OC[C@@H](N(C)C(=O)c2ccc3nc(N)c4cncn4c3c2)c2cc(F)ccc21 (stereo partly drawn) [Example 77, 4-amino-N-((4S)-6-fluoro-1-methylisochroman-4-yl)-N-methylimidazo[1,5-a]quinoxaline-8-carboxamide] | 101 | 4260 |  |  |
| CC1OC[C@@H](N(C)C(=O)c2ccc3nc(N)c4cncn4c3c2)c2cccnc21 (stereo partly drawn) [Example 108, 4-amino-N-methyl-N-((5S)-8-methyl-5,8-di hydro-6H-pyrano[3,4-b]pyridin-5-yl)imidaz o[1,5-a]quinoxaline-8-carboxamide] | 121 | > 10000 |  |  |
| CN(C(=O)c1cc2c(cc1F)nc(N)c1cncn12)C1CCOc2cc(C(F)(F)F)cnc21 (centres unmarked) [Example 110, 4-amino-7-fluoro-N-methyl-N-(7-(trifluoromethyl)-3,4-dihydro-2 H-pyrano[3,2-b]pyridin-4-yl)imidazo[1,5-a] quinoxaline-8-carbox amide] | > 3000 | > 10000 |  |  |
| CN(C(=O)c1ccc2nc(N)c3cnc(Br)n3c2c1)[C@@H]1COc2cc(C(F)(F)F)ccc21 [Example 111, (S)-4-amino-1-bromo-N-methyl-N-(6-(trifluoromethyl)-2,3-dihydrobenzofuran-3-yl)imidazo[1,5-a]quinoxaline-8-carboxamide] | 500 | > 10000 |  |  |
| Nc1nc2cc(F)c(C(=O)N(C3CC3)C3COc4cc(N5CCOCC5)ccc43)cc2n2cncc12 (centres unmarked) [Example 121, 4-amino-N-cyclopropyl-7-fluoro-N-(6-mor pholino-2,3-dihydrobenzofuran-3-yl)imidaz o[1,5-a]quinoxaline-8-carboxamide] | 73.7 | > 10000 |  |  |

More lines, now with the values ahead:

| IC50 ([1]; Homo sapiens, HCT-116, 192 h) [nM] | IC50 ([2]; Homo sapiens, HCT-116, 192 h) [nM] | IC50 [1] [nM] | IC50 [2] [nM] | Compound |
| --- | --- | --- | --- | --- |
| 19.7 | 3710 |  |  | CC1OC[C@@H](N(C)C(=O)c2cc3c(cn2)nc(N)c2cncn23)c2ccc(F)cc21 (stereo partly drawn) [Example 62, 4-amino-N-((4S)-7-fluoro-1-methylisochroman-4-yl)-N-methyli midazo[1,5-a]pyrido[3,4-e]pyrazine-8-carb oxamide] |
| 46.8 | 3260 |  |  | CN(C(=O)c1cc2c(cc1Cl)nc(N)c1cncn12)[C@@H]1COc2ccc(F)cc21 [Example 63, (S)-4-amino-7-chloro-N-(5-fluoro-2,3-dihydrobenzofuran-3-yl)-N-methylimidazo[1,5-a] quinoxaline-8-carbox amide] |
| 95.3 | 5950 |  |  | N#Cc1ccc2c(c1)OCC2N(C(=O)c1ccc2nc(N)c3cncn3c2c1)C1CC1 (centres unmarked) [Example 65, 4-amino-N-(6-cyano-2,3-dihydrobenzofuran-3-yl)-N-cyclopropyl imidazo[1,5-a]quinox aline-8-carboxamide] |
| 2260 | > 20000 |  |  | CN(C(=O)c1ccc2nc(N)c3cncn3c2c1)[C@@H]1COc2ccc(F)cc21 [Example 66, (S)-4-amino-N-(5-fluoro-2,3-dihydrobenzofuran-3-yl)-N-methyli midazo[1,5-a]quinoxa line-8-carboxamide] |
| 35.6 | 3640 |  |  | Nc1nc2cnc(C(=O)N(C3CC3)C3COc4cc(C(F)(F)F)ccc43)cc2n2cncc12 (centres unmarked) [Example 67, 4-amino-N-cyclopropyl-N-(6-(trifluoromethyl)-2,3-dihydrobenzof uran-3-yl)imidazo[1,5-a]pyrido[3,4-e]pyrazine-8-carboxamide] |
| > 3000 | > 10000 |  |  | CN(C(=O)c1ccc2nc(N)c3cncn3c2c1)[C@@H]1COc2cc(NS(=O)(=O)C(F)(F)F)ccc21 [Example 76, (S)-4-amino-N-methyl-N-(6-((trifluoromethyl)sulfonamido)-2,3-dihydrobenzofuran-3-yl)imida zo[1,5-a]quinoxaline-8-carboxamide] |
| > 3000 | 9090 |  |  | CCOC(=O)c1ncn2c1c(N)nc1ccc(C(=O)N(C)C3COc4cc(C(F)(F)F)ccc43)cc12 (centres unmarked) [Example 109, ethyl 4-amino-8-(methyl(6-(trifluoromethyl)-2,3-dihydrobenzofuran-3-yl)carbamoyl)imidazo[1,5-a]quinoxaline-3-carboxylate] |
| 338 | > 10000 |  |  | CN(C(=O)c1ccc2nc(N)c3cncn3c2c1)[C@@H]1COc2cc(C(F)F)ccc21 [Example 112, (S)-4-amino-N-(6-(difluoromethyl)-2,3-dihydrobenzofuran-3-yl)-N-methylimidazo[1,5-a]quinoxaline-8-carboxamide] |
| 146 | > 10000 |  |  | CN(C(=O)c1cc2c(cc1F)nc(N)c1cncn12)[C@@H]1CCOc2cc(-c3cnn(C)c3)ccc21 [Example 114, (R)-4-amino-7-fluoro-N-methyl-N-(7-(1-methyl-1H-pyrazol-4-yl)chroman-4-yl)imidazo [1,5-a]quinoxaline-8-c arboxamide] |
| 84.3 | > 10000 |  |  | CN(C(=O)c1cc2c(cc1F)nc(N)c1cncn12)[C@@H]1CCOc2cc(-c3ccnn3C)ccc21 [Example 115, (R)-4-amino-7-fluoro-N-methyl-N-(7-(1-methyl-1H-pyrazol-5-yl)chroman-4-yl)imidazo[1,5-a]quinoxaline-8-carboxamide] |
| 109 | > 10000 |  |  | Cc1cc(-c2ccc3c(c2)OCC[C@H]3N(C)C(=O)c2cc3c(cc2F)nc(N)c2cncn23)on1 [Example 116, (R)-4-amino-7-fluoro-N-methyl-N-(7-(3-methylisoxazol-5-yl)chroman-4-yl)imidazo[1,5-a]quinoxaline-8-carb oxamide] |
| 2930 | > 10000 |  |  | CN(C(=O)c1ccc2nc(N)c3cnc(C4CC4)n3c2c1)[C@@H]1COc2cc(C(F)(F)F)ccc21 [Example 118, (S)-4-amino-1-cyclopro pyl-N-methyl-N-(6-(trifluoromethyl)-2,3-dihydrobenzofuran-3-yl)imida zo[1,5-a]quinoxaline-8-carboxamide] |
| 2450 | > 10000 |  |  | CN(C(=O)c1cc2c(cn1)nc(N)c1cncn12)C1CCc2ccccc21 (centres unmarked) [Example 125, 4-amino-N-(2,3-dihydro-1H-inden-1-yl)-N-methylimidazo[1,5-a] pyrido[3,4-e]pyrazine-8-carboxamide] |
| 592 | > 20000 |  |  | Nc1nc2ncc(C(=O)N(C3CC3)C3COc4cc(C(F)(F)F)ccc43)cc2n2cncc12 (centres unmarked) [Example 126, 4-amino-N-cyclopropyl-N-(6-(trifluoromethyl)-2,3-dihydrobenzof uran-3-yl)imidazo[1,5-a]pyrido[2,3-e]pyrazine-8-carboxamide] |

— patent publication EP4775208A1, “USE OF PRMT5 INHIBITOR IN TREATMENT OF TUMORS OR CANCERS” (Apeiron Therapeutics (Hong Kong) Ltd., priority 2023, dated 2025)
